Test results: patent US11912660B2, “S6K1 protein kinase inhibitors as cancer therapeutics” (Xavier University of Louisiana, priority 2020, dated 2024)
Values joined by “and” are separate entries in the source; they are usually repeats but may differ in a detail not shown here. Equal values may be shown once. Read-outs that look alike come from different tables or passages of the source.

Legend:
Assay in all cases: SelectScreen kinase panel screening
Format in all cases: biochemical
ABL1 = ABL1 (Homo sapiens (Human), UniProt P00519)
From the text: (§1) The complete list of the kinases given in Table 1 and their details can be found on the ThermoFisher website for Biochemical Kinase assays (thermofisher.com/us/en/home/industrial/pharma-biopharma/drug-discovery-development/target-and-lead-identification-and-validation/kinasebiology.html).

ABL2 (Arg) = ABL2 (Arg) (Homo sapiens (Human), UniProt P42684)
From the text: as §1

AKT2 (PKB beta) = AKT2 (PKB beta) (Homo sapiens (Human), UniProt P31751)
From the text: as §1

ALK = ALK (Homo sapiens (Human), UniProt Q9UM73)
Chain of ALK (Q9UM73 19-1620): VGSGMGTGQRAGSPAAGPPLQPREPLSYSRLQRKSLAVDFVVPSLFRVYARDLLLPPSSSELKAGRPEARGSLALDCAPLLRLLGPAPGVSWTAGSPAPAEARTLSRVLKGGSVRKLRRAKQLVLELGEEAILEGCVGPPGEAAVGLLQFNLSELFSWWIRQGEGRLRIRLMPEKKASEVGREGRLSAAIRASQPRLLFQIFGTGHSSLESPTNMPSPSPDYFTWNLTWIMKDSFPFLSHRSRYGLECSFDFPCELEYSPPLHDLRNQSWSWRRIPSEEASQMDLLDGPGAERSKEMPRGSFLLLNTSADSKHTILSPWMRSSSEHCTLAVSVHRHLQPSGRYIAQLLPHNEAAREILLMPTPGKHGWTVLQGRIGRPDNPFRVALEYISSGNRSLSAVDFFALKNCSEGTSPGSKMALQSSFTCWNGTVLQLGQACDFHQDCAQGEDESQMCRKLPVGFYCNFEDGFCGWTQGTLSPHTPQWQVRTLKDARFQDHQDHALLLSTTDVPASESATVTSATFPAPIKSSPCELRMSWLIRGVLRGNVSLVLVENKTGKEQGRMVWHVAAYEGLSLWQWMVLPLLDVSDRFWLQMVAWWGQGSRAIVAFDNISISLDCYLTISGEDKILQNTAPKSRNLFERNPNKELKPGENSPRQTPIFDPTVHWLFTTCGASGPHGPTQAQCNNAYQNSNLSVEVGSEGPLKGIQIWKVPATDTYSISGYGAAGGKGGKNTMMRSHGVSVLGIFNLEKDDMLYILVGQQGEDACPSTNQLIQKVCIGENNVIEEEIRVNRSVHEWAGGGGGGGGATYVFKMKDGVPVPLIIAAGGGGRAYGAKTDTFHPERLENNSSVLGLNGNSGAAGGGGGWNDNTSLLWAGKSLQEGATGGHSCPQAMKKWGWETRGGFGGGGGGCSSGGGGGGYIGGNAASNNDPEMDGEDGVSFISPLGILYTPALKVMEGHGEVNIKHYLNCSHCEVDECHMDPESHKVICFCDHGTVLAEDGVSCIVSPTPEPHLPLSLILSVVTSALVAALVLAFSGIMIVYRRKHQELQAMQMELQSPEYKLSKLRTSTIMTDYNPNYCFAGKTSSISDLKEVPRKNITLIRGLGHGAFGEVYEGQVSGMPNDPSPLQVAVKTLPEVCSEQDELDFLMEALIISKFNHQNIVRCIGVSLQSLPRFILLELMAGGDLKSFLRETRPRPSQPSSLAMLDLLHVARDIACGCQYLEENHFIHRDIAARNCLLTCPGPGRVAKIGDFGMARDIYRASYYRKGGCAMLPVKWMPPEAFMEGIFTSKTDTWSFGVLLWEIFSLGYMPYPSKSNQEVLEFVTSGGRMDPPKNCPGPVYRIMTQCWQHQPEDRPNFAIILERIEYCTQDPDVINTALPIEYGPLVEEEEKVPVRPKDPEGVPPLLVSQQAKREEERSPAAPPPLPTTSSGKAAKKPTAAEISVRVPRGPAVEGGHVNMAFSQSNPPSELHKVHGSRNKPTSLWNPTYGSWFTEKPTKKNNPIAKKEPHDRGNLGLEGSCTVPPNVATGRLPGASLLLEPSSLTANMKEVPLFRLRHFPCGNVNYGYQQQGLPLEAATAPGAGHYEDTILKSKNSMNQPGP
From the text: as §1

AURKA (Aurora A) = AURKA (Aurora A) (Homo sapiens (Human), UniProt O14965)
From the text: as §1

BRAF V599E = BRAF V599E (Homo sapiens (Human), UniProt P15056, V600E)
From the text: as §1

CDK1/cyclin B = CDK1/cyclin B (Homo sapiens (Human), UniProt P06493)
From the text: as §1

CDK5/p25 = CDK5/p25 (Homo sapiens (Human), UniProt Q00535)
From the text: as §1

CDK7/cyclin H/MNAT1 = CDK7/cyclin H/MNAT1 (Homo sapiens (Human), UniProt P50613)
Chain of CDK7/cyclin H/MNAT1 (P50613 whole entry): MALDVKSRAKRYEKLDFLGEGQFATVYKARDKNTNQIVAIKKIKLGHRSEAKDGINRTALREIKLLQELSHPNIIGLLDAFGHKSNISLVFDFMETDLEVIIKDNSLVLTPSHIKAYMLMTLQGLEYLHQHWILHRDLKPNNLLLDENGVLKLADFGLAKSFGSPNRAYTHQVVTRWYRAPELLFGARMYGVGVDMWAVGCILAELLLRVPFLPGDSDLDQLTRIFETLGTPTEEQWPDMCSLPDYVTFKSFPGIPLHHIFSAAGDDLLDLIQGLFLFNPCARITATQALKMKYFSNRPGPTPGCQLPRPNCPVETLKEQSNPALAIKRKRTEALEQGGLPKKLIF
Chain of CDK7/cyclin H/MNAT1 (P51946 whole entry partner): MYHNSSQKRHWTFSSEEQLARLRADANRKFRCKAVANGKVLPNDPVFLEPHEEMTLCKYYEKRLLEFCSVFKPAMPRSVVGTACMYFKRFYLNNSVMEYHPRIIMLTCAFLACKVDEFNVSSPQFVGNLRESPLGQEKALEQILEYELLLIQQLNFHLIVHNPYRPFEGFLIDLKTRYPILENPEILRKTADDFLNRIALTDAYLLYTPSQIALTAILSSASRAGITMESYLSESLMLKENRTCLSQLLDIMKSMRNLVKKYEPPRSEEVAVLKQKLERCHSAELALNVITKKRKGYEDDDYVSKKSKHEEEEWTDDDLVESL
Chain of CDK7/cyclin H/MNAT1 (P51948 whole entry partner): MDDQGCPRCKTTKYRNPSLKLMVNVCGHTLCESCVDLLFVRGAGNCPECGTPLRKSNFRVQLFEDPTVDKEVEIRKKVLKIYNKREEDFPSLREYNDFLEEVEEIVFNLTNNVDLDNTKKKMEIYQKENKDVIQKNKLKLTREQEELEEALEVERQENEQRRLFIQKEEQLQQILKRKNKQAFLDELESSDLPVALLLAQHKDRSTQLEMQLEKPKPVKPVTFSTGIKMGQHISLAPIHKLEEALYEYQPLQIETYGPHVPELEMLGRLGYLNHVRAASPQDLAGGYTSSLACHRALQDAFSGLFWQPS
From the text: as §1

CHEK1 (CHK1) = CHEK1 (CHK1) (Homo sapiens (Human), UniProt O14757)
From the text: as §1

CHEK2 (CHK2) = CHEK2 (CHK2) (Homo sapiens (Human), UniProt O96017)
From the text: as §1

CSNK1E (CK1 epsilon) = CSNK1E (CK1 epsilon) (Homo sapiens (Human), UniProt P49674)
From the text: as §1

EPHB2 = EPHB2 (Homo sapiens (Human), UniProt P29323)
From the text: as §1

FES (FPS) = FES (FPS) (Homo sapiens (Human), UniProt P07332)
From the text: as §1

FLT4 (VEGFR3) = FLT4 (VEGFR3) (Homo sapiens (Human), UniProt P35916)
Chain of FLT4 (VEGFR3) (P35916 25-1363): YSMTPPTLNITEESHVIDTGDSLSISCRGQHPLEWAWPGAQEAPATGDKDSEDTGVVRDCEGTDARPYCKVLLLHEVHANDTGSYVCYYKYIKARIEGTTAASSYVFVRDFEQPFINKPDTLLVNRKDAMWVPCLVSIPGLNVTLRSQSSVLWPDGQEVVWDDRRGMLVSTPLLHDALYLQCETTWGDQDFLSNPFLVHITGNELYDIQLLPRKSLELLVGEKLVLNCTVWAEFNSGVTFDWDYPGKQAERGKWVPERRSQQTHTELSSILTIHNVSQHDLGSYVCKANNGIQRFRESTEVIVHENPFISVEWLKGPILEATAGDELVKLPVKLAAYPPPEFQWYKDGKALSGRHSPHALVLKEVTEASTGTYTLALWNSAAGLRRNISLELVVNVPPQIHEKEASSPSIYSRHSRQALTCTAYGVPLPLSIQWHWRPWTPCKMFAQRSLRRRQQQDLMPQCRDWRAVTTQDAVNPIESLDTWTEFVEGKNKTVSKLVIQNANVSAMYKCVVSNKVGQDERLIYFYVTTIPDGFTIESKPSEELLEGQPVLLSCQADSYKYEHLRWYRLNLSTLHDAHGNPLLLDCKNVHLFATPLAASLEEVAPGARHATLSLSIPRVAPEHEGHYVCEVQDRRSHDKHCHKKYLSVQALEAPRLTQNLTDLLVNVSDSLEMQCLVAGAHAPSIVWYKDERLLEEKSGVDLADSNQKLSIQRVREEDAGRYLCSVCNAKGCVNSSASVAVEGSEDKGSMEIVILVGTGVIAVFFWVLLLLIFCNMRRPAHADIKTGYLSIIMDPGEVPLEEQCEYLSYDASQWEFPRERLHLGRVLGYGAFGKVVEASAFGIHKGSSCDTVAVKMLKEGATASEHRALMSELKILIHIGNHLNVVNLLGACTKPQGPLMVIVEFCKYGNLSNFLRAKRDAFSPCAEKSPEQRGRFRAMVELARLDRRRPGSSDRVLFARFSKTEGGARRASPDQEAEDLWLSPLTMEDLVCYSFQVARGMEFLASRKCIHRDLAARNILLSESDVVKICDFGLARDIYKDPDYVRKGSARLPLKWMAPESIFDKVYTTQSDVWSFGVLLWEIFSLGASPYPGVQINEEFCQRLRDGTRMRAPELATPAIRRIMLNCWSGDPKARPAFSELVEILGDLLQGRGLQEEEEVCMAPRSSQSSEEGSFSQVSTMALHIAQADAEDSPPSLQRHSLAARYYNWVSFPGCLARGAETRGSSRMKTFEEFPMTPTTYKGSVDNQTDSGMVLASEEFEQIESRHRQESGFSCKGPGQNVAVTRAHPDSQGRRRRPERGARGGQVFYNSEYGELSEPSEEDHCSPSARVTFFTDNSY
From the text: as §1

GSG2 (Haspin) = GSG2 (Haspin) (Homo sapiens (Human), UniProt Q8TF76)
Chain of GSG2 (Haspin) (Q8TF76 whole entry): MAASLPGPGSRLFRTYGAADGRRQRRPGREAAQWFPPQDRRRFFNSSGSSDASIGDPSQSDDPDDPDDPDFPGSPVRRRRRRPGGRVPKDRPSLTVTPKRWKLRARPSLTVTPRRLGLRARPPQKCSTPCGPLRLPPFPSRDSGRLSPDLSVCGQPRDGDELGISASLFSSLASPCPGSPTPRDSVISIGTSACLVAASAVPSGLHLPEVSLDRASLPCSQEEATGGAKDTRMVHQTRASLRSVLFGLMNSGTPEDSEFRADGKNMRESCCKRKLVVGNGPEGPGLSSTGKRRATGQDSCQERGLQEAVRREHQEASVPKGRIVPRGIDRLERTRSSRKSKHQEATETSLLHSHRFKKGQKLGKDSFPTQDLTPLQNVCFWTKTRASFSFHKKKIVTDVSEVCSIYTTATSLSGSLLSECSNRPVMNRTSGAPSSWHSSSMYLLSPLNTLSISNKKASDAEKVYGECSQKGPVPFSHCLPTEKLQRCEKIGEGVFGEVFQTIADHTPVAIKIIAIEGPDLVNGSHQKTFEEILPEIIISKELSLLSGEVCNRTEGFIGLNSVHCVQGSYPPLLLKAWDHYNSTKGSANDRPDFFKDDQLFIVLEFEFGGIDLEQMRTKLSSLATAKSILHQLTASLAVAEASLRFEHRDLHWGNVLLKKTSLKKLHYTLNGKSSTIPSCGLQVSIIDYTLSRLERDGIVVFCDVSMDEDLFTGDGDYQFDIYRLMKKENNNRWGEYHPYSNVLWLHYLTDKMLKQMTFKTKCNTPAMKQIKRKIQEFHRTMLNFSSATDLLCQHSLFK
From the text: as §1

IKBKE (IKK epsilon) = IKBKE (IKK epsilon) (Homo sapiens (Human), UniProt Q14164)
From the text: as §1

JAK1 = JAK1 (Homo sapiens (Human), UniProt P23458)
From the text: as §1

JAK2 JH1 JH2 = JAK2 JH1 JH2 (Homo sapiens (Human), UniProt O60674)
From the text: as §1

LCK = LCK (Homo sapiens (Human), UniProt P06239)
From the text: as §1

[1] = target: MAPK14 (p38 alpha) Direct (Homo sapiens (Human), UniProt Q16539)
Chain of MAPK14 (p38 alpha) Direct (Q16539 whole entry): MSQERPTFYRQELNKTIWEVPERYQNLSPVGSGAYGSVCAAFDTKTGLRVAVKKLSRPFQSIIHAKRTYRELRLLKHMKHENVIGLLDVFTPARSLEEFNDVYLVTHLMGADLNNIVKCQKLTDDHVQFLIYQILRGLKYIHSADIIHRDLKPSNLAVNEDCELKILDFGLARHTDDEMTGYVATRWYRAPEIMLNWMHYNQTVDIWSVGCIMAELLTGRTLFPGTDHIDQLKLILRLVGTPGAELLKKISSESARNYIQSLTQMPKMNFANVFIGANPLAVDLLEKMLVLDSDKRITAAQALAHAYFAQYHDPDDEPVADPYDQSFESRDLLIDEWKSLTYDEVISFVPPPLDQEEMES
From the text: as §1

MST1R (RON) = MST1R (RON) (Homo sapiens (Human), UniProt Q04912)
From the text: as §1

PDGFRB (PDGFR beta) = PDGFRB (PDGFR beta) (Homo sapiens (Human), UniProt P09619)
From the text: as §1

PDK1 Direct = PDK1 Direct (Homo sapiens (Human), UniProt O15530)
From the text: as §1

PLK3 = PLK3 (Homo sapiens (Human), UniProt Q9H4B4)
From the text: as §1

PTK2 (FAK) = PTK2 (FAK) (Homo sapiens (Human), UniProt Q05397)
From the text: as §1

PTK6 (Brk) = PTK6 (Brk) (Homo sapiens (Human), UniProt Q13882)
From the text: as §1

RAF1 (cRAF) Y340D Y341D = RAF1 (cRAF) Y340D Y341D (Homo sapiens (Human), UniProt P04049, Y340D/Y341D)
From the text: as §1

RET = RET (Homo sapiens (Human), UniProt P07949)
From the text: as §1

SYK = SYK (Homo sapiens (Human), UniProt P43405)
From the text: as §1

YES1 = YES1 (Homo sapiens (Human), UniProt P07947)
From the text: as §1

SMILES: Nc1cc(N)c2c(c1)C(=O)NC2=O [RJ1, 4,6-diaminoisoindoline-1,3-dione]
- inhibition at 10 µM (ABL1; read-out: % Inhibition): 59%
- inhibition at 10 µM (ABL1; read-out: % Inhibition class): 40 to 80%
- inhibition at 10 µM (ABL2 (Arg); read-out: % Inhibition): 54%
- inhibition at 10 µM (ABL2 (Arg); read-out: % Inhibition class): 40 to 80%
- inhibition at 10 µM (AKT2 (PKB beta); read-out: % Inhibition): 9%
- inhibition at 10 µM (AKT2 (PKB beta); read-out: % Inhibition class): < 40%
- inhibition at 10 µM (ALK; read-out: % Inhibition): 32%
- inhibition at 10 µM (ALK; read-out: % Inhibition class): < 40%
- inhibition at 10 µM (AURKA (Aurora A); read-out: % Inhibition): 43%
- inhibition at 10 µM (AURKA (Aurora A); read-out: % Inhibition class): 40 to 80%
- inhibition at 10 µM (BRAF V599E; read-out: % Inhibition): 22%
- inhibition at 10 µM (BRAF V599E; read-out: % Inhibition class): < 40%
- inhibition at 10 µM (CDK1/cyclin B; read-out: % Inhibition): 8%
- inhibition at 10 µM (CDK1/cyclin B; read-out: % Inhibition class): < 40%
- inhibition at 10 µM (CDK5/p25; read-out: % Inhibition): 27%
- inhibition at 10 µM (CDK5/p25; read-out: % Inhibition class): < 40%
- % Inhibition (CDK7/cyclin H/MNAT1; 10 μM): 1% and −1%
- inhibition at 10 µM (CDK7/cyclin H/MNAT1; read-out: % Inhibition class): < 40%
- inhibition at 10 µM (CHEK1 (CHK1); read-out: % Inhibition): 72%
- inhibition at 10 µM (CHEK1 (CHK1); read-out: % Inhibition class): 40 to 80%
- inhibition at 10 µM (CHEK2 (CHK2); read-out: % Inhibition): 38%
- inhibition at 10 µM (CHEK2 (CHK2); read-out: % Inhibition class): < 40%
- inhibition at 10 µM (CSNK1E (CK1 epsilon); read-out: % Inhibition): 33%
- inhibition at 10 µM (CSNK1E (CK1 epsilon); read-out: % Inhibition class): < 40%
- inhibition at 10 µM (EPHB2; read-out: % Inhibition): 10%
- inhibition at 10 µM (EPHB2; read-out: % Inhibition class): < 40%
- inhibition at 10 µM (FES (FPS); read-out: % Inhibition): 36%
- inhibition at 10 µM (FES (FPS); read-out: % Inhibition class): < 40%
- inhibition at 10 µM (FLT4 (VEGFR3); read-out: % Inhibition): 55%
- inhibition at 10 µM (FLT4 (VEGFR3); read-out: % Inhibition class): 40 to 80%
- % Inhibition (GSG2 (Haspin); 10 μM): 34% and 65%
- inhibition at 10 µM (GSG2 (Haspin); read-out: % Inhibition class): < 40%
- inhibition at 10 µM (IKBKE (IKK epsilon); read-out: % Inhibition): 16%
- inhibition at 10 µM (IKBKE (IKK epsilon); read-out: % Inhibition class): < 40%
- inhibition at 10 µM (JAK1; read-out: % Inhibition): 9%
- inhibition at 10 µM (JAK1; read-out: % Inhibition class): < 40%
- inhibition at 10 µM (JAK2 JH1 JH2; read-out: % Inhibition): 15%
- inhibition at 10 µM (JAK2 JH1 JH2; read-out: % Inhibition class): < 40%
- inhibition at 10 µM (LCK; read-out: % Inhibition): 31%
- inhibition at 10 µM (LCK; read-out: % Inhibition class): < 40%
- inhibition at 10 µM ([1]; read-out: % Inhibition): 2%
- inhibition at 10 µM ([1]; read-out: % Inhibition class): < 40%
- inhibition at 10 µM (MST1R (RON); read-out: % Inhibition): 27%
- inhibition at 10 µM (MST1R (RON); read-out: % Inhibition class): < 40%
- inhibition at 10 µM (PDGFRB (PDGFR beta); read-out: % Inhibition): 5%
- inhibition at 10 µM (PDGFRB (PDGFR beta); read-out: % Inhibition class): < 40%
- inhibition at 10 µM (PDK1 Direct; read-out: % Inhibition): 33%
- inhibition at 10 µM (PDK1 Direct; read-out: % Inhibition class): < 40%
- inhibition at 10 µM (PLK3; read-out: % Inhibition): 77%
- inhibition at 10 µM (PLK3; read-out: % Inhibition class): 40 to 80%
- inhibition at 10 µM (PTK2 (FAK); read-out: % Inhibition): 26%
- inhibition at 10 µM (PTK2 (FAK); read-out: % Inhibition class): < 40%
- inhibition at 10 µM (PTK6 (Brk); read-out: % Inhibition): 4%
- inhibition at 10 µM (PTK6 (Brk); read-out: % Inhibition class): < 40%
- inhibition at 10 µM (RAF1 (cRAF) Y340D Y341D; read-out: % Inhibition): 6%
- inhibition at 10 µM (RAF1 (cRAF) Y340D Y341D; read-out: % Inhibition class): < 40%
- inhibition at 10 µM (RET; read-out: % Inhibition): 79%
- inhibition at 10 µM (RET; read-out: % Inhibition class): 40 to 80%
- inhibition at 10 µM (SYK; read-out: % Inhibition): 39%
- inhibition at 10 µM (SYK; read-out: % Inhibition class): < 40%
- inhibition at 10 µM (YES1; read-out: % Inhibition): 24%
- inhibition at 10 µM (YES1; read-out: % Inhibition class): < 40%
